Holding throughout (assay): Eurofins kinase selectivity profile against 380 other human recombinant kinases (Table S2)
Holding throughout (format): biochemical

Test [1] addresses T1, 380 human recombinant protein kinases (Homo sapiens, UniProt P50750).
T1 construct: purchased Eurofins (Celle Lévescault)
Particulars: CDK9/cyclin T1(h), read-out: Inhibition rate. Summed up:
(§1)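 Commercial selectivity screen of the test compound against a panel of 380 human recombinant protein kinases, run by an outside contractor at several compound concentrations to check whether its potency was specific for MK2.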

For test [2], the target named is T2, 380 human recombinant protein kinases (Homo sapiens, UniProt P54764).
T2 construct: purchased Eurofins (Celle Lévescault)
Particulars: EphA4(h), read-out: Inhibition rate. Summed up: as §1

For test [3], the target named is T3, 380 human recombinant protein kinases (Homo sapiens, UniProt O75747).
T3 construct: purchased Eurofins (Celle Lévescault)
T3 sequence (O75747 1-1486): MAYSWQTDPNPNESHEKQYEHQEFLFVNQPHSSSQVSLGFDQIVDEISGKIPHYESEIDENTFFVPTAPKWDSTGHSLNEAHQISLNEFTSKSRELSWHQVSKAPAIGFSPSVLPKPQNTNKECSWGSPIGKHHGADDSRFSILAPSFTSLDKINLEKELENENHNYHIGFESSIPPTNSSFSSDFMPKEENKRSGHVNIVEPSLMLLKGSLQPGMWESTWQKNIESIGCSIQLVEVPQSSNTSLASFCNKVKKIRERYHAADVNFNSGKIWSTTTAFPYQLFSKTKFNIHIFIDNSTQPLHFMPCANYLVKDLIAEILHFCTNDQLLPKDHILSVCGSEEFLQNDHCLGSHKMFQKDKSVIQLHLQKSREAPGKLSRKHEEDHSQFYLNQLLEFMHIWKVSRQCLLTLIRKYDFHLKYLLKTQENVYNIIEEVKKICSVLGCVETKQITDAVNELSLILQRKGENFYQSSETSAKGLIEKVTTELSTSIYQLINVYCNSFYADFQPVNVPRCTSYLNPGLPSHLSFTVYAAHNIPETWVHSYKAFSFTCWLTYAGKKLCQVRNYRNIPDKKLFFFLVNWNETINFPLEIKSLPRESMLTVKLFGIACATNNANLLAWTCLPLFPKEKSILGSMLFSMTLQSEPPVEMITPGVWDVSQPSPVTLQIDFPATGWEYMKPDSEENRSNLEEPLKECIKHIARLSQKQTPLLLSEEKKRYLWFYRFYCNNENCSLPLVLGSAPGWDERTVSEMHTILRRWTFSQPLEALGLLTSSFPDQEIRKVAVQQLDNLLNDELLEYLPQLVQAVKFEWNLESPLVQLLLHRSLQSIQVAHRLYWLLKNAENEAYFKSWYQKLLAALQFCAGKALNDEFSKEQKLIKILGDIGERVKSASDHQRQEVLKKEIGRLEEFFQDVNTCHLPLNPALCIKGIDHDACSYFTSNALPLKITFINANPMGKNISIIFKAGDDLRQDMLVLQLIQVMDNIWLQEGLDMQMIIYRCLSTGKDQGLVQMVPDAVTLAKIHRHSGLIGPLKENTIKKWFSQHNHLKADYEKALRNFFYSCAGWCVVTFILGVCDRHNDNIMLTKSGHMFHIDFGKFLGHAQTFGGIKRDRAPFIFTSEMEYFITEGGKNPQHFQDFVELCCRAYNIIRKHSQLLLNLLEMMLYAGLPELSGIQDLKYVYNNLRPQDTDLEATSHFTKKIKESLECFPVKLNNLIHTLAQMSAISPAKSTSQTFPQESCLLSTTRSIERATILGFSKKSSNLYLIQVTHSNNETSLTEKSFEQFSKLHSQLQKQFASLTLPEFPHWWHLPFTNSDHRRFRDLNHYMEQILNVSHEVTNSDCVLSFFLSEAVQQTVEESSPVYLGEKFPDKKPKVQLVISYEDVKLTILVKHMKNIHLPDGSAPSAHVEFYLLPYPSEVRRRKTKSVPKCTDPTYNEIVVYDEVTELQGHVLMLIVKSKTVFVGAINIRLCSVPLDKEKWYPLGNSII
The note with it: PI3KC2γ(h), read-out: Inhibition rate (%). Summed up: as §1

For test [4], the target named is T4, 380 human recombinant protein kinases (Homo sapiens, UniProt Q9UHD2).
T4 construct: purchased Eurofins (Celle Lévescault)
T4 sequence (Q9UHD2 1-729): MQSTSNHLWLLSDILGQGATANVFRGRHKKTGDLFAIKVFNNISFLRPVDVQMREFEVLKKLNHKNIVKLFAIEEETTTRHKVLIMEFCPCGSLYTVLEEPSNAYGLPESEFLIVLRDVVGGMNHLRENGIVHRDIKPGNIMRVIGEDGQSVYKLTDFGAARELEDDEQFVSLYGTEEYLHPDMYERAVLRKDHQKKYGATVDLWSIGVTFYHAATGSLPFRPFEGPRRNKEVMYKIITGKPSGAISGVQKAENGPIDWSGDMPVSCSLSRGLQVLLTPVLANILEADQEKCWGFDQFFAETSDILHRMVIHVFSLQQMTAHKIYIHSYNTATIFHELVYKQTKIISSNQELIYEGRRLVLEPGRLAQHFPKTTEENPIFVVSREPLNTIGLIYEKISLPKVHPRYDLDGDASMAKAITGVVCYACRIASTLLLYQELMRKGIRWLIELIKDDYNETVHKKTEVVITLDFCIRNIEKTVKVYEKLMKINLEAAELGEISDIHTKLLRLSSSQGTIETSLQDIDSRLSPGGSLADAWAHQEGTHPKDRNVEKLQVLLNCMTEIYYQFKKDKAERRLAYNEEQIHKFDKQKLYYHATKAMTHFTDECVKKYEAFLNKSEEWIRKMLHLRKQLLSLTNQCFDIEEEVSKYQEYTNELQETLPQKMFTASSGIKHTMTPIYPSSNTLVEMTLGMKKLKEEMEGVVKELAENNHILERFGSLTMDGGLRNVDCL
Particulars: TBK1(h), read-out: Inhibition rate (%). A digest of the protocol: as §1

The target in test [5] is T5, 380 human recombinant protein kinases (Homo sapiens, UniProt Q14004).
T5 construct: purchased Eurofins (Celle Lévescault)
The note with it: CDK13/cyclinK(h), read-out: Inhibition rate. A digest of the protocol:
as §1

Consider one compound from PMC11233931, “Remodeling tumor‐associated macrophage for anti‐cancer effects by rational design of irreversible inhibition of mitogen‐activated protein kinase‐activated protein kinase 2” (MedComm, 2024).

Broadly, the inhibition is the change of the read-out against control, counted positive when it falls.

T1 sequence (P50750 whole entry): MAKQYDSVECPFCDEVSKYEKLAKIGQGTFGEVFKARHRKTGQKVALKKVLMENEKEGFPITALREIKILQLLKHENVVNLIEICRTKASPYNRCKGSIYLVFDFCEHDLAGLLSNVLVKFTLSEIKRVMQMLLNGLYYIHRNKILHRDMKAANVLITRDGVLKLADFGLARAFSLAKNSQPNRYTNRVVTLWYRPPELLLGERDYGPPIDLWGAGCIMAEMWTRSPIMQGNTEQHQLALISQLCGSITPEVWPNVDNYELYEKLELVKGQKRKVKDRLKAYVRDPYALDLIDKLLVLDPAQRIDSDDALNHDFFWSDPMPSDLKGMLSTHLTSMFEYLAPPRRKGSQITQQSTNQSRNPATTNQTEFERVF
T5 sequence (Q14004 whole entry): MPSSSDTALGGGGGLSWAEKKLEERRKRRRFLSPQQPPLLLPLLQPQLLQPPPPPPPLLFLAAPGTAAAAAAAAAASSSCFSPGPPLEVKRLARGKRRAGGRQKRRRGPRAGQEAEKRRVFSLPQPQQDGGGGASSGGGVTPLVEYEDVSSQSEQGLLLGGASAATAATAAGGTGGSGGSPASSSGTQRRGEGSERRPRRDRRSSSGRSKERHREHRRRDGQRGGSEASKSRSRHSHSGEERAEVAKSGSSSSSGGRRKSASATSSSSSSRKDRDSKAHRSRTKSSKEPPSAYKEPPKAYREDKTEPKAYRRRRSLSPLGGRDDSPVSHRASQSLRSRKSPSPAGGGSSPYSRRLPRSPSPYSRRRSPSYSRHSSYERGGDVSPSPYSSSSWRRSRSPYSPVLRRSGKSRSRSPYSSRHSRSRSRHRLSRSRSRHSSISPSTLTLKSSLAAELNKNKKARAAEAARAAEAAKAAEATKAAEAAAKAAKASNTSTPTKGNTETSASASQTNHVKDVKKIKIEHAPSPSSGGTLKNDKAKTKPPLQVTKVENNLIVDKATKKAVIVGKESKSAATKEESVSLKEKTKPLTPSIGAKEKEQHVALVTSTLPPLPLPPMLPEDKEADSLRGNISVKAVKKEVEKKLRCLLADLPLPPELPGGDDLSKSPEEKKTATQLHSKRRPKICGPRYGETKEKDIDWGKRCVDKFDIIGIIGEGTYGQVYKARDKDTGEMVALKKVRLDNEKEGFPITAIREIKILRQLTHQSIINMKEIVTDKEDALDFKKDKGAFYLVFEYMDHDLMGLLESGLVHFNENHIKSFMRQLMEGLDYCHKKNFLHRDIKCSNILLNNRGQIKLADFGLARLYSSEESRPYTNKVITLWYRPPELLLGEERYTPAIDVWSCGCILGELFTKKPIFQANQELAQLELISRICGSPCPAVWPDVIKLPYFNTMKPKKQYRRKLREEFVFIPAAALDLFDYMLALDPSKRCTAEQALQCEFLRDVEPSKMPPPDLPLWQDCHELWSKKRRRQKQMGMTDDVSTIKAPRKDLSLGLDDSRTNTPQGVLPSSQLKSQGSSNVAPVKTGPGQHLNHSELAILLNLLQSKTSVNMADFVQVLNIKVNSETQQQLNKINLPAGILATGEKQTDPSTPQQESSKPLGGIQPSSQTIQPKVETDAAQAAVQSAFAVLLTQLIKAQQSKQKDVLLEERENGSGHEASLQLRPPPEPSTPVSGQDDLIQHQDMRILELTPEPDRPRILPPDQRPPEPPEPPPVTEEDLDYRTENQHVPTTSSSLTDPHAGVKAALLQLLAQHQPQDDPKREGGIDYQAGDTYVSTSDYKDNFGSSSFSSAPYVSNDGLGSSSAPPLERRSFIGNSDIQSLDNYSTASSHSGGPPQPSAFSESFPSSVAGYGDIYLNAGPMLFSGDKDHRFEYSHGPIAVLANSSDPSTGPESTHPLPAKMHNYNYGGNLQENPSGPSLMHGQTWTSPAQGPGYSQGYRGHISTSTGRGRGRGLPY
T2 sequence (P54764 20-986): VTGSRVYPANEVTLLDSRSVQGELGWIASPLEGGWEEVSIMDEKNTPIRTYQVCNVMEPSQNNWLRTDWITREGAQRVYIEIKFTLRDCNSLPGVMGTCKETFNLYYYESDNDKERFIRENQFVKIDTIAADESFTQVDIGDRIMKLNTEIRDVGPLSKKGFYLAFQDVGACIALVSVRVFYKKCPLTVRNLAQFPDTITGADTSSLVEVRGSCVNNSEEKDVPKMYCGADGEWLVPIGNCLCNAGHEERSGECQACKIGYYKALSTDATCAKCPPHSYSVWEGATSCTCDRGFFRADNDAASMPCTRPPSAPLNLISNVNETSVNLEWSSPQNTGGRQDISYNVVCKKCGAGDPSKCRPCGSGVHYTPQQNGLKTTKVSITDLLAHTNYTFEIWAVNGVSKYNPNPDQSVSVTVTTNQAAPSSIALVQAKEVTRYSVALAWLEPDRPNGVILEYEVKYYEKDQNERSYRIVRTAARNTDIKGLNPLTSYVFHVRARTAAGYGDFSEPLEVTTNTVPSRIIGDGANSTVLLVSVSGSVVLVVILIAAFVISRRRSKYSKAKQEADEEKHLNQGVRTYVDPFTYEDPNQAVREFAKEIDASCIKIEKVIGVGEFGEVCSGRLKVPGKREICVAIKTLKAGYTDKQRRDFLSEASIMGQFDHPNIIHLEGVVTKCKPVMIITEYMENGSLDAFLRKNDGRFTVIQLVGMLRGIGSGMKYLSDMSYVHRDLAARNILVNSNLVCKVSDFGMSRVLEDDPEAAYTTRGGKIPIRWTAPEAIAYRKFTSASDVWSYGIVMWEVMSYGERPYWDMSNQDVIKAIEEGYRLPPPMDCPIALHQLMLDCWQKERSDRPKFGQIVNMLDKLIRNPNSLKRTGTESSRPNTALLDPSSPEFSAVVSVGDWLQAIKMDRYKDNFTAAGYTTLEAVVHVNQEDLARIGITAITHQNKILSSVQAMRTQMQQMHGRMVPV

Regarding `C=CC(=O)Nc1cc(-c2cc(-c3cc4c([nH]3)CCNC4=O)ccn2)ccc1OC(F)(F)F` [compound 11], the inhibition at 0.01 µM in test [1] (10 nM) was 8%; in test [2] (10 nM), -1%; in test [3] (10 nM), 6%; in test [4] (10 nM) it was 1%; in test [5] (10 nM) it was 1%. Further, the inhibition at 0.1 µM in test [1] (100 nM) was 2%; in test [2] (100 nM) it was 3%; in test [3] (100 nM), 13%; in test [4] (100 nM), -13%; in test [5] (100 nM) it was 7%. The inhibition at 1 µM in test [1] (1000 nM) was 6%; in test [2] (1000 nM), -7%; in test [3] (1000 nM), 12%; in test [4] (1000 nM), -7%; in test [5] (1000 nM) it was 9%.
